Data from patent US20180353461A1, “USE OF CANNABINOIDS AS CERAMIDE-GENERATING ANTICANCER AGENTS IN TUMORS OF THE HEMATOPOIETIC AND LYMPHOID TISSUES” (priority 2014, published 2018).

How the values were obtained:
HL60 cells [1] = assay: Mitochondrial superoxide / ROS in HL60 cells (MitoSOX assay); format: cell-based, human
Method: (§1) Mitochondrial membrane potential and superoxide detection Cells (10e6 cells per assay) were treated with a concentration of WIN-55 for 15, 30, 45 and 60 min at 37° C. Fluorochromes 10 μM TMRM [(tetramethylrhodamine-ethyl-ester-perchlorate), Santa Cruz Biotechnology Inc.] to detect membrane potential, or 5 μM MitoSOX [Molecular Probes (Invitrogen)] to detect mitochondrial superoxide, were added for the last 15 min of treatment. CCCP (uncoupler of oxidative phosphorylation) or H2O2 (oxidant agent) was used as a positive control of the techniques respectively (Labbe et al., 2008). The fluorescence detection of TMRM was measured for flow citometry. Fluorescent intensity was quantified and analyzed using Infinicyt™ Software (Cytognos, Salamanca, Spain).
The MitoSOX signal was detected using a ‘Fluoroscan’ multi-well plate reader (Thermo Labsystems, Thermo Scientific), excitation/emission maxima of 543/593 nm.
To delve into the processes that participate in cannabinoid-induced apoptosis, we evaluated the potential of mitochondrial membrane potential in HL60 cells after treatment with WIN-55, at indicated times, using TMRE assay by flow citometry. We observed that cannabinoids induced a drop of Δψm in HL60 cells (FIG. 20a). The loss of potential started as early as 15 min after exposure to the cannabinoid, and continued decreasing over time. […]

HL60 cells [2] = assay: Mitochondrial membrane potential in HL60 cells (TMRE, flow cytometry); format: cell-based, human
Method: as §1
To delve into the processes that participate in cannabinoid-induced apoptosis, we evaluated the potential of mitochondrial membrane potential in HL60 cells after treatment with WIN-55, at indicated times, using TMRE assay by flow citometry. We observed that cannabinoids induced a drop of Δψm in HL60 cells (FIG. 20a). The loss of potential started as early as 15 min after exposure to the cannabinoid, and continued decreasing over time. Also the ROS increase by MitoSOX assay was observed, specially in HL60 cells after exposure to WIN-55 (FIG. 20b).

`CS(=O)(=O)O.Cc1c(C(=O)c2cccc3ccccc23)c2cccc3c2n1[C@H](CN1CCOCC1)CO3` [WIN-55, (R)-(+)-[2,3-dihydro-5-methyl-3-(4-morpholinylmethyl)-pyrrolo-[1,2,3]-1,4-benzoxazin-6-yl]-1-naphthalenylmethanone mesylate] was tested, and the “ROS by MitoSOX assay” value (HL60 cells [1]) was “increase”, the “time after exposure at which the loss of potential started” value (HL60 cells [2]; HL60) was 15 min and the “mitochondrial membrane potential (Δψm)” value (HL60 cells [2]; HL60, TMRE, flow cytometry) was “drop of Δψm”.
